Earlier results in US20100136125A1, “METHOD OF TREATING INFLAMMATORY BOWEL DISEASE” (Jacobus Pharmaceutical Company, Inc., priority 2006, published 2010).
Where two headings read alike, the source gives them in different places.

Legend:
[1] = target: T1, thiopurine methyltransferase (TPMT) (Homo sapiens, UniProt P51580); details: in vitro kinetic studies; read-out: IC50, non-competitive inhibition of TPMT
T1 sequence (P51580 1-245): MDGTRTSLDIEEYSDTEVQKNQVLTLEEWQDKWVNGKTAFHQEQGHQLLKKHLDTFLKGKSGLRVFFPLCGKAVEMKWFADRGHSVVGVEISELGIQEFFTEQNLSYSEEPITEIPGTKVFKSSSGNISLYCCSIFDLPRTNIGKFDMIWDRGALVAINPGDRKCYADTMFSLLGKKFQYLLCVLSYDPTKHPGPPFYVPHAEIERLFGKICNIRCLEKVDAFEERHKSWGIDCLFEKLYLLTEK

[2] = test system: distal ulcerative colitis; details: enema 2 g bid, open-label
[3] = test system: active left-sided ulcerative colitis; details: 2 gram nightly retention enema, p<0.005 vs placebo
ulcerative colitis = details: topical
[4] = children, 300 mg/kg/day in 5 equal doses
[5] = test system: quiescent Crohn's ileocolitis; details: 1.5 g/d slow release, maintenance therapy
[6] = in vivo
[7] = not given; remark: listed apart in the source
Crohn's disease [8] = details: in vivo
Crohn's disease [9] = test system: Crohn's disease
[10] = dose 4.0 gm PASER, 2.6-2.8 gm salts

In the case of Nc1cccc(C(=O)O)c1O [3-ASA], the IC50 [1] is given as 99 µM.

In the case of Nc1ccc(C(=O)O)c(O)c1 [4-ASA, 4-aminosalicylic acid], the “participants with complete resolution of symptoms and sigmoidoscopic abnormalities by 8 weeks” value [2] is given as 46%, the “additional participants experiencing improvement” value ([2]; 8 weeks) is given as 31% and the “significant improvement in clinical, sigmoidoscopic and histologic variables after 8 weeks” value [3] is given as 83%. For the same compound, the “clinical improvement within 2 weeks” value (ulcerative colitis) was 79%, the “histologic improvement within 2 weeks” value (ulcerative colitis) was 44% and the “sigmoidoscopic improvement within 2 weeks” value (ulcerative colitis) was 78%. The “serum level after 4 hours” value [4] was 2-2.5 mg percent, the “serum level of 4-ASA 60 minutes after oral solution” value [4] was ≤ 120 micrograms/ml and the IC50 [1] was 2600 µM. The “excreted in the urine” value (in vivo) was ≤ 80%, the “half-life of free 4-ASA” value (renal disease) was 30.8 min and the “dosage excreted in acetylated form” value (urine) was ≥ 50%. For the same compound, the “half-life of free 4-ASA” value (without renal disease) was 26.4 min, the MIC (tuberculosis; bacteriostatic) was “under 2 μg/ml” and the “relapse rate after one year” value [5] was 36%. The half-life [6] was 50 min.

In the case of Nc1ccc(O)c(C(=O)O)c1 [5-ASA, 5-aminosalicylic acid], the “clinical improvement within 2 weeks” value (ulcerative colitis) is given as 79%, the “histologic improvement within 2 weeks” value (ulcerative colitis) is given as 44% and the “sigmoidoscopic improvement within 2 weeks” value (ulcerative colitis) is given as 78%. The IC50 [1] was 1240 µM, the “anti-tuberculous activity” value (tuberculosis) was “no anti-tuberculous activity” and the “relapse rate after one year” value [5] was 38%.

In the case of Nc1ccc(C(=O)O)c([O-])c1.Nc1ccc(C(=O)O)c([O-])c1.[Ca+2] [Ca++ PAS], the “AOC0-∞” value ([7]; in vivo) is given as 326.83 µg·h/mL, the Cmax ([7]; in vivo) is given as 139.51 µg/mL and the Tmax ([7]; in vivo) is given as 61.2 min.

In the case of Nc1ccc(C(=O)[O-])c(O)c1.[K+] [K+ PAS], the “AOC0-∞” value [7, 10] is listed as 313.22 µg·h/mL, the Cmax [7, 10] is listed as 121.09 µg/mL and the Tmax [7, 10] is listed as 66 min.

In the case of Nc1ccc(C(=O)[O-])c(O)c1.[Na+] [Na+ PAS], the “AOC0-∞” value ([7]; in vivo) is listed as 313.22 µg·h/mL, the Cmax ([7]; in vivo) is listed as 155.44 µg/mL and the Tmax ([7]; in vivo) is listed as 49.8 min.

For O=C(O)c1cc(/N=N/c2ccc(S(=O)(=O)Nc3ccccn3)cc2)ccc1O [sulfasalazine], the IC50 [1] is listed as 78 µM.

For Acetyl-para-aminosalicylate [Ac-PAS], the “half-life of the acetylated metabolite” value (normals) is listed as 51 min and the “half-life of the acetylated metabolite” value (uremic patients) is listed as 309 min.

In the case of “granulocyte-macrophage stimulating factor: granulocyte-macrophage stimulating factor studied in active Crohn's disease”, the “time by which significant clinical activity is demonstrated” value (Crohn's disease [8]) is listed as ≤ 15 days.

For “infliximab: TNF antagonist, chimeric monoclonal antibody cA2 to tumor necrosis factor α”, the remission rate (Crohn's disease [9]; at 4 weeks) is given as 33%, the response rate (Crohn's disease [9]; at 4 weeks) is given as 65% and the “remission (CDAI<150 and IBDQ>170-190)” value (Crohn's disease [9]; by two weeks) is given as 27%. For the same compound, the “response (decrease in CDAI≧70 points)” value (Crohn's disease [9]; by two weeks) was 61%.
